From US20250313546A1, “NUCLEIC ACID BINDERS” (UNIVERSITY OF STRATHCLYDE, priority 2022, published 2025)
pIC50: −log10 of the molar value. ≈ marks a conversion by molar mass, not a printed value. Read-outs that look alike come from different tables or passages of the source.

Columns and labels:
[1] = tested on: A. fumigatus A1160 (MFIG001); details: Aspergillus fumigatus, read-out: MIC99 A. fumigatus A1160
[2] = tested on: Rhizopus arrhizus (NEQAS12.35321); details: read-out: MIC99 Rhizopus arrhizus
Candida auris (H.17.157) = details: Candidozyma auris, read-out: MIC99 Candida auris
Protocol: (§2) The Minimum Inhibitory Concentration (MIC, at 99% inhibition) of the compounds was determined using the broth microdilution method as recommended by EUCAST (EUCAST Definitive Document E.DEF 9.3.2, Method for the determination of broth dilution minimum inhibitory concentrations of antifungal agents for conidia forming moulds and EUCAST Definitive Document E.DEF 7.3.2 Method for the determination of broth dilution minimum inhibitory concentrations of antifungal agents for yeasts).

[3] = tested on: Scedosporium prolificans (F2746); details: Lomentospora prolificans, read-out: MIC99 Scedosporium prolificans
Protocol: as §2

C. albicans (ATCC 90028) = details: Candida albicans, ATCC90028, read-out: MIC99 C. albicans
Protocol: as §2

T. equiperdum = assay: Resazurin-based (Alamar blue) drug sensitivity assay; details: Trypanosoma equiperdum, read-out: IC50 T. equiperdum
[4] = tested on: PolyAU double stranded RNA; assay: Fluorescence intercalator displacement (FID) assay, SYBR-safe probe; details: 20 μM compound, 30° C., lower % = stronger binding
Procedure, shortened: (§1)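 Probe displacement was measured at 30 °C in 1 mM phosphate pH 7.4 containing SybrSafe (12500-fold dilution), 3.76 ng/mL nucleic acid (salmon dsDNA or polyAU dsRNA) and 20 μM compound. Fluorescence loss is normalised between probe-only and probe-plus-nucleic-acid controls.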

[5] = tested on: Genomic double stranded DNA (salmon); assay: as above; details: 20 μM compound, 30° C., lower % = stronger binding
Procedure, shortened: as §1

A. flavus (CBS 128.202) = details: Aspergillus flavus, CBS128, read-out: MIC99 A. flavus
[6] = tested on: Candida glabrata (ACPF3309); details: Nakaseomyces glabratus, read-out: MIC99 Candida glabrata
[7] = tested on: Staphylococcus aureus (ATCC 43300); assay: Antibacterial MIC, broth microdilution (CLSI); type: cell-based; details: for MIC80: Staphylococcus aureus, ATCC43300, read-out: MIC80 S. aureus
T. evansi AntTat 3/3 = assay: Resazurin-based (Alamar blue) drug sensitivity assay; details: read-out: IC50 T. evansi
[8] = tested on: Fusarium oxysporum (F7098); details: read-out: MIC99 Fusarium oxysporum
Protocol: as §2

C. neoformans (F10025) = details: Cryptococcus neoformans, read-out: MIC99 C. neoformans
[9] = tested on: Escherichia coli (ATCC 25922); assay: Antibacterial MIC, broth microdilution (CLSI); type: cell-based; details: Escherichia coli, ATCC25922; read-out: MIC80 E. coli
[10] = tested on: Enterococcus faecalis (ATCC 51299); assay: Antibacterial MIC, broth microdilution (CLSI); type: cell-based; details: for MIC80: Enterococcus faecalis, ATCC51299, read-out: MIC80 E. faecalis
Rhizopus arrhizus = assay: Expanded set of filamentous fungi, MIC broth microdilution (CLSI); type: cell-based
C. guilliiermondii = assay: Expanded set of yeasts, MIC broth microdilution (CLSI); type: cell-based; details: MIC at 50% inhibition
Candida parapsilosis = assay: as above; type: cell-based; details: MIC at 50% inhibition; for MIC50: Lodderomyces parapsilosis
Fusarium oxysporum = assay: Expanded set of filamentous fungi, MIC broth microdilution (CLSI); type: cell-based; details: MIC at 50% inhibition
C. glabrata = assay: Expanded set of yeasts, MIC broth microdilution (CLSI); type: cell-based; details: Nakaseomyces glabratus, MIC at 50% inhibition
Lomentospora prolificans = assay: Expanded set of filamentous fungi, MIC broth microdilution (CLSI); type: cell-based; details: isolate S2, MIC at 50% inhibition
Scedosporium spp. = assay: as above; type: cell-based
C. albicans = assay: Expanded set of yeasts, MIC broth microdilution (CLSI); type: cell-based; details: MIC at 50% inhibition; for MIC50: Candida albicans
Paecilomyces variotii = assay: Expanded set of filamentous fungi, MIC broth microdilution (CLSI); type: cell-based; details: isolate MYA-3630, MIC at 50% inhibition
C. auris = assay: Expanded set of yeasts, MIC broth microdilution (CLSI); type: cell-based; details: MIC at 50% inhibition
Aspergillus fumigatus = assay: Expanded set of filamentous fungi, MIC broth microdilution (CLSI); type: cell-based
Fusarium solani = assay: as above; type: cell-based; details: MIC at 50% inhibition
Aspergillus flavus = assay: as above; type: cell-based; details: MIC at 50% inhibition; for MIC50: Aspergillus flavus
C. krusei = assay: Expanded set of yeasts, MIC broth microdilution (CLSI); type: cell-based; details: Pichia kudriavzevii, ATCC6258; isolate ATCC 6258; MIC at 50% inhibition
Blastomyces dermatitidis = assay: Expanded set of filamentous fungi, MIC broth microdilution (CLSI); type: cell-based
[11] = SI, IC50 (μM)/MIC80 (μM), HEK293 cytotoxicity, Alkyl Amidines and NH Pyrroles

In the case of `Cn1cc(NC(=O)c2cc(NC(=O)c3ccc(/C=C/c4ccc5nonc5c4)cc3)c[nH]2)cc1C(=O)NCCC(=N)N` [IIIa1, (E)-N-(3-amino-3-iminopropyl)-4-(4-(4-(2-(benzo[c][1,2,5]oxadiazol-5-yl)vinyl)benzamido)-1H-pyrrole-2-carboxamido)-1-methyl-1H-pyrrole-2-carboxamide], the MIC99 [1] was 5 to 25 µg/mL (≈ 8.84 to 44.2 µM), the MIC99 [2] was 5 to 25 µg/mL (≈ 8.84 to 44.2 µM) and the MIC99 (Candida auris (H.17.157)) was greater than 50 µg/mL. The MIC99 [3] was 5 to 25 µg/mL (≈ 8.84 to 44.2 µM), the MIC99 (C. albicans (ATCC 90028)) was 25 to 50 µg/mL (≈ 44.2 to 88.4 µM) and the pIC50 (T. equiperdum) was 7.00 to 8.00. For the same compound, the “% Normalised Fluorescence with polyAU RNA” value [4] was 18%, the “% Normalised Fluorescence with gDNA” value [5] was 17% and the MIC99 (A. flavus (CBS 128.202)) was 5 to 25 µg/mL (≈ 8.84 to 44.2 µM). For the same compound, the MIC99 [6] was less than 5 µg/mL, the “S. aureus Selectivity Indices, Group” value [7, 11] was “C (Group C: 5 < SI <= 10)” and the MIC80 [7] was less than 5 µM. It also gave a pIC50 (T. evansi AntTat 3/3) of 7.00 to 8.00, an MIC99 [8] of 5 to 25 µg/mL (≈ 8.84 to 44.2 µM) and an MIC99 (C. neoformans (F10025)) of less than 5 µg/mL. For the same compound, the MIC80 [9] was greater than 100 µM, the MIC80 [10] was 5 to 25 µM (≈ 2.83 to 14.1 µg/mL) and the “E. faecalis Selectivity Indices, Group” value [10, 11] was “B (Group B: 3 < SI <= 5)”.
`C/N=C(/CCNC(=O)c1cc(NC(=O)c2cc(NC(=O)c3ccc(/C=C/c4ccc5nonc5c4)cc3)cn2C)cn1C)NC` [Ia6, 4-(4-((E)-2-(benzo[c][1,2,5]oxadiazol-5-yl)vinyl)benzamido)-1-methyl-N-(1-methyl-5-(((Z)-3-(methylamino)-3-(methylimino)propyl)carbamoyl)-1H-pyrrol-3-yl)-1H-pyrrole-2-carboxamide] showed an MIC99 [1] of less than 5 µg/mL, an MIC99 [2] of 5 to 25 µg/mL (≈ 8.23 to 41.1 µM) and an MIC99 (Candida auris (H.17.157)) greater than 50 µg/mL. The MIC99 [3] was less than 5 µg/mL, the MIC99 (C. albicans (ATCC 90028)) was less than 5 µg/mL and the “% Normalised Fluorescence with polyAU RNA” value [4] was 6%. For the same compound, the “% Normalised Fluorescence with gDNA” value [5] was 3%, the MIC99 (A. flavus (CBS 128.202)) was less than 5 µg/mL and the MIC99 [6] was less than 5 µg/mL. It also gave an MIC80 [7] of less than 5 µM, an MIC99 [8] of less than 5 µg/mL and an MIC99 (C. neoformans (F10025)) of less than 5 µg/mL. For the same compound, the MIC80 [9] was greater than 100 µM and the MIC80 [10] was less than 5 µM.
With `CNC(=N)CCNC(=O)c1cc(NC(=O)c2cc(NC(=O)c3ccc(/C=C/c4cnc5ccccc5c4)cc3)cn2C)cn1C` [Ia27, (E)-N-(3-imino-3-(methylamino)propyl)-1-methyl-4-(1-methyl-4-(4-(2-(quinolin-3-yl)vinyl)benzamido)-1H-pyrrole-2-carboxamido)-1H-pyrrole-2-carboxamide] the MIC50 (Rhizopus arrhizus; isolate 99-880, MIC at 50% inhibition) was no more than 1 µg/mL, the MIC50 (Rhizopus arrhizus; isolate 99-892, MIC at 50% inhibition) was no more than 1 µg/mL and the MIC50 (Rhizopus arrhizus; isolate RA3, MIC at 50% inhibition) was 1 to 8 µg/mL (≈ 1.66 to 13.3 µM). For the same compound, the MIC50 (C. guilliiermondii; isolate Cgui1) was 1 to 8 µg/mL (≈ 1.66 to 13.3 µM), the “MIC50 C. guilliiermondii” value (C. guilliiermondii; isolate Cgui2) was “** (** means 1 μg/mL < MIC50 <= 8 μg/mL)” and the “MIC50 C. guilliiermondii” value (C. guilliiermondii; isolate Cgui3) was “** (** means 1 μg/mL < MIC50 <= 8 μg/mL)”. The MIC50 (Candida parapsilosis; ATCC22019, isolate ATCC 22019, read-out: MIC50 Candida parapsilosis) was 1 to 8 µg/mL (≈ 1.66 to 13.3 µM), the MIC50 (Candida parapsilosis; isolate CP1, read-out: MIC50 C. parapsilosis) was 1 to 8 µg/mL (≈ 1.66 to 13.3 µM) and the “MIC50 C. parapsilosis” value (Candida parapsilosis; isolate CP2) was “** (** means 1 μg/mL < MIC50 <= 8 μg/mL)”. The “MIC50 C. parapsilosis” value (Candida parapsilosis; isolate CP3) was “** (** means 1 μg/mL < MIC50 <= 8 μg/mL)”, the MIC50 (Fusarium oxysporum; Fusarium oxysporum, isolate F2) was no more than 1 µg/mL and the “MIC50 Fusarium oxysporum” value (Fusarium oxysporum; isolate F3) was “*** (*** means MIC50 <= 1 μg/mL)”. The MIC50 (C. glabrata; isolate 05-62) was no more than 1 µg/mL, the MIC50 (C. glabrata; isolate 05-761) was no more than 1 µg/mL and the MIC50 (C. glabrata; isolate CG3) was no more than 1 µg/mL. The MIC50 (Lomentospora prolificans) was no more than 1 µg/mL, the “% Normalised Fluorescence with polyAU RNA” value [4] was 17% and the “% Normalised Fluorescence with gDNA” value [5] was 13%. The MIC50 (Scedosporium spp.; isolate S1, MIC at 50% inhibition) was no more than 1 µg/mL, the MIC50 (Scedosporium spp.; isolate S3, MIC at 50% inhibition) was no more than 1 µg/mL and the MIC50 (C. albicans; isolate CA3) was 1 to 8 µg/mL (≈ 1.66 to 13.3 µM). The MIC50 (C. albicans; isolate SC5314) was 1 to 8 µg/mL (≈ 1.66 to 13.3 µM), the “MIC50 C. albicans” value (C. albicans; isolate CA90028) was “** (** means 1 μg/mL < MIC50 <= 8 μg/mL)” and the MIC80 [7] was less than 5 µM. The MIC50 (Paecilomyces variotii) was 1 to 8 µg/mL (≈ 1.66 to 13.3 µM), the MIC50 (C. auris; Candidozyma auris, isolate DI17-47) was 1 to 8 µg/mL (≈ 1.66 to 13.3 µM) and the “MIC50 C. auris” value (C. auris; isolate DI17-46) was “** (** means 1 μg/mL < MIC50 <= 8 μg/mL)”. The “MIC50 C. auris” value (C. auris; isolate DI17-48) was “** (** means 1 μg/mL < MIC50 <= 8 μg/mL)”, the MIC50 (Aspergillus fumigatus; isolate AF293, MIC at 50% inhibition) was no more than 1 µg/mL and the MIC50 (Aspergillus fumigatus; isolate DI15-106, MIC at 50% inhibition) was no more than 1 µg/mL. The MIC50 (Aspergillus fumigatus; isolate DI15-116, MIC at 50% inhibition) was no more than 1 µg/mL, the MIC50 (Aspergillus fumigatus; isolate DI19-187, MIC at 50% inhibition) was no more than 1 µg/mL and the MIC50 (Aspergillus fumigatus; isolate DI19-230, MIC at 50% inhibition) was no more than 1 µg/mL. For the same compound, the MIC50 (Aspergillus fumigatus; isolate DI19-231, MIC at 50% inhibition) was no more than 1 µg/mL, the MIC50 (Aspergillus fumigatus; isolate DI19-232, MIC at 50% inhibition) was no more than 1 µg/mL and the MIC50 (Aspergillus fumigatus; isolate DI19-233, MIC at 50% inhibition) was no more than 1 µg/mL. It also gave an MIC50 (Aspergillus fumigatus; isolate DI19-234, MIC at 50% inhibition) of no more than 1 µg/mL, an MIC50 (Aspergillus fumigatus; isolate DI19-236, MIC at 50% inhibition) of no more than 1 µg/mL and an MIC50 (Aspergillus fumigatus; isolate DI19-237, MIC at 50% inhibition) of no more than 1 µg/mL. It also gave an MIC50 (Aspergillus fumigatus; isolate DI20-95, MIC at 50% inhibition) of no more than 1 µg/mL, an MIC50 (Aspergillus fumigatus; isolate DI20-103, MIC at 50% inhibition) of no more than 1 µg/mL and an MIC50 (Fusarium solani; Fusarium solani, isolate F4) of no more than 1 µg/mL. The “MIC50 Fusarium solani” value (Fusarium solani; isolate DI19-284) was “*** (*** means MIC50 <= 1 μg/mL)”, the MIC50 (Aspergillus flavus; ATCC204304, isolate ATCC 204304) was no more than 1 µg/mL and the MIC50 (Aspergillus flavus; isolate Aflav2) was no more than 1 µg/mL. The “MIC50 Aspergillus flavus” value (Aspergillus flavus; isolate Aflav3) was “*** (*** means MIC50 <= 1 μg/mL)”, the MIC80 [9] was greater than 100 µM and the MIC50 (C. krusei) was no more than 1 µg/mL. It also gave an MIC80 [10] of less than 5 µM, an MIC50 (Blastomyces dermatitidis; isolate BD1, MIC at 50% inhibition) of 1 to 8 µg/mL (≈ 1.66 to 13.3 µM) and an MIC50 (Blastomyces dermatitidis; isolate BD2, MIC at 50% inhibition) of 1 to 8 µg/mL (≈ 1.66 to 13.3 µM). It also gave an MIC50 (Blastomyces dermatitidis; isolate BD3, MIC at 50% inhibition) of 8 to 32 µg/mL (≈ 13.3 to 53.1 µM).
